Source: patent US11534457B2, “Use of dextran sulfate” (priority 2017, dated 2022)

Columns and labels:
human motor neurons = assay: PI staining (DNA content, cell cycle, cell numbers, apoptotic fraction), Acumen cytometry; assay type: cell-based; settings: 0.01 and 0.1 mg/ml
Method: The study aims were to evaluate the effect of LMW-DS on cell survival and expression of differentiation proteins in three cell types, cerebral cortical neurons, motor neurons and Schwann cells, using two concentrations 0.01 and 0.1 mg/ml of LMW-DS.
Neurons were cultured as 40,000 cells per well and Schwann cells 3,000 cells per. Cells were treated after 24 hours. The number of cells per well depended on the growth phenotype, proliferative capacity, etc.
NeuroBlast was pre-warmed to 37° C. Cells were thawed in a 37° C. water bath for no longer than 2 min. 1 ml of media was gently added drop-wise. Cells were resuspended and transferred to a 15 ml tube containing 9 ml of medium. Cells were centrifuged at 200 relative centrifugal force (RCF) for 5 min. Pellet was resuspended in 5 ml of medium and cells were counted with the Cellometer. 40,000 cells per well were seeded in previously coated 96-well plates. Cells were incubated at 37° C. with 5% CO2. Cells were allowed to settle for 24 hours before drug treatment. After 24 hours NeuroBlast medium was replaced with MotorBlast medium (Lonzo).
LMW-DS was prepared in the culture media of choice for each cell line and added to the respective wells in the doses 0.01 and 0.1 mg/ml. For cell survival assays cells were analyzed after 24 and 48 hours in eight identical wells/dose/time point. Differentiation and protein expression assay was analyzed after 48 hours, also in octuplicates.
Cells were fixated in the wells. Propidium iodine was used for viability assay. For immunohistochemical analysis, neurons were stained with βIII-tubulin, which is a tubulin specific for neurons. Schwann cells were stained for Myelin Basic Protein (MBP). For the negative controls PBST (0.1% Triton-X-100 in PBS) was applied instead of primary antibodies.
The Acumen cytometer allows the direct cytometric analysis of attached cells without prior detachment. […] The protein content of the cells can also be directly measured and expressed as either ‘total protein content’ or ‘mean protein content’.

[1] = target: protein-protein interaction between oligomeric amyloid-β and PrP^c (Homo sapiens, UniProt P04156); assay type: binding
[2] = tested on: CASM3C system [coronary artery smooth muscle cells+(IL-1β, TNFα and IFNγ)]; assay: BioMAP CASM3C system; assay type: cell-based, Human
Description: (§1) In this study LMW-DS was characterized by profiling in the BioMAP® Diversity PLUS panel. The BioMAP® panel consists of human primary cell-based systems designed to model different aspects of the human body in an in vitro format. The 12 systems in the BioMAP® Diversity PLUS panel (Table 32) allow test agent characterization in an unbiased way across a broad set of systems modeling various human disease states. The BioMA®P systems are constructed with one or more primary cell types from healthy human donors, with stimuli, such as cytokines or growth factors, added to capture relevant signaling networks that naturally occur in human tissue or pathological conditions. […]
(§2) Systems are derived from either single cell types or co-culture systems. […] Test agents prepared in either DMSO (small molecules; final concentration 0.1%) or PBS (biologics) are added at the indicated concentrations 1-hr before stimulation, and remain in culture for 24-hrs or as otherwise indicated (48-hrs, MyoF system; 72-hrs, BT system (soluble readouts); 168-hrs, BT system (secreted IgG)). […] Soluble factors from supernatants are quantified using either HTRF® detection, bead-based multiplex immunoassay or capture ELISA. Overt adverse effects of test agents on cell proliferation and viability (cytotoxicity) are detected by sulforhodamine B (SRB) staining, for adherent cells, and alamarBlue® reduction for cells in suspension. […]

[3] = tested on: KF3CT system [keratinocytes and HDFn+(IL-1β, TNFα, IFNγ and TGFβ)]; assay: BioMAP KF3CT system; assay type: cell-based, Human
Description: as §1, §2

[4] = tested on: MyoF system [differentiated lung myofibroblasts+(TNFα and TGFβ)]; assay: BioMAP MyoF system; assay type: cell-based, Human
Description: as §1, §2

## low molecular weight dextran sulfate [LMW-DS]
Human motor neurons
  cell loss in cultures: major cell loss
  number of cells in the G2/M phase (PI content): appeared to increase the number of cells in the G2/M phase
  proliferation within a population of very small cells: small increase in proliferation
[1]
  Competable binding (%): 85 ± 4%
  Hill coefficient: 1.00 ± 0.21
  IC50: 0.42 ± 0.16 µg/mL
  competition for the protein-protein interaction (in words): in a concentration dependent manner as did LMW-DS
[2]; CASM3C system
  Decreased biomarker activity: VCAM-1, MIG
[2]; all tested concentrations
  key inflammation biomarkers including MIG, VCAM, IP-10 and ITAC: decreased over all tested concentrations
[3]
  Decreased biomarker activity: MCP-1
  Increased biomarker activity: IL-8
[4]
  biomarker activities modulated: merely IL-8
[4]; MyoF system
  Increased biomarker activity: IL-8
